In patent US11697648B2, “Fused pyrimidine pyridinone compounds as JAK inhibitors” (THERAVANCE BIOPHARMA R&D IP, LLC, priority 2019, dated 2023):

How the values were obtained:
[1] = target: JAK3 (Homo sapiens (Human), UniProt P52333); experiment: Biochemical JAK3 kinase assay (LanthaScreen)
Summary of the method: (§1)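 GST-JAK + GFP-STAT1 peptide, HEPES pH 7.5/MgCl2/EGTA/Brij-35 buffer; cpd preincubation 1 h RT; ATP start, 1 h RT; stop with 10 mM EDTA + 2 nM Tb-anti-pSTAT1; TR-FRET 520/495. 4-parameter IC50 → pKi (Cheng-Prusoff).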

[2] = system: Caco-2 cell monolayers; experiment: Caco-2 permeation assay; assay type: in vitro ADME; settings: 5 μM, A-B direction, with Verapamil (25 μM)
Procedure: Assay 4: Caco-2 Permeation Assay
The Caco-2 permeation assay was performed to model the ability of test compounds to pass through the intestine and get into the blood stream after oral administration. The rate at which test compounds in solution permeate a cell monolayer designed to mimic the tight junction of human small intestinal monolayers was determined.
CacoReady 24-well transwell plates were obtained from ADMEcell (Alameda, Calif.). The compounds were evaluated at a concentration of 5 μM from 10 mM DMSO stock solutions in duplicate (n=2). The passive permeability of the compounds tested was evaluated using Caco-2 cell monolayers along with Verapamil (25 μM) to inhibit P-gp transport proteins in the apical to basolateral (A-B) direction. The experiment was conducted in a 37° C., 5% CO2 incubator. Caco-2 culture media consisted of standard filtered DMEM, FCS 10%, L-Glutamine 1% and PenStrep 1%. Basal assay plate was prepared by adding 750 μL of transport buffer to A-B wells. A CacoReady™ plate was prepared by removing the Caco-2 media from the apical wells and replacing with fresh transport media (200 μL repeated for a total of 3 washes). Blank media (200 μL) was then replaced with diluted compound for A-B wells. To begin the incubation, the basal plate was removed from the incubator and the apical section was added on top of it. Samples (40 μL) were collected from the apical and basal compartments for time zero (t0). Samples were collected again after 120 minutes (t120) from the apical and basal compartments. All samples were diluted and prepared for bioanalysis by LC-MS/MS. The permeation coefficient (Kp, mean A to B+ Verapamil Papparent) in cm/sec was calculated as dQ (flux)/(dt×Area×concentration).
In this assay, a Kp value less than about 5×10^−6 cm/sec is considered favorable to minimize systemic exposure and target the colon. A Kp value less than about 10×10^−6 cm/sec may also be sufficient to minimize systemic exposure and target the colon.

[3] = target: JAK1 (Homo sapiens (Human), UniProt P23458); experiment: Biochemical JAK1 kinase assay (LanthaScreen)
Summary of the method: as §1

[4] = system: IL-2 stimulated STAT5 phosphorylation in Tall-1 human T cell line (JAK3); experiment: Cellular JAK3 potency assay: inhibition of IL-2 stimulated pSTAT5 in Tall-1 T cells; assay type: cell-based
Summary of the method: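 Tall-1 cells, 45,000 per well, preincubated 1 hour with compound at 37 °C, then stimulated 30 minutes with IL-2 at 300 ng/ml final. pSTAT5 (Tyr694/699) in lysates quantified by AlphaLISA SureFire Ultra. pIC50 derived from inhibition curves, given as mean with SD.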

[5] = target: JAK2 (Homo sapiens (Human), UniProt O60674); experiment: Biochemical JAK2 kinase assay (LanthaScreen)
Summary of the method: as §1

[6] = target: Tyk2 (Homo sapiens (Human), UniProt P29597); experiment: Biochemical Tyk2 kinase assay (LanthaScreen)
Summary of the method: as §1

[7] = selectivity JAK3 over JAK1, difference of pKi
[8] = IL-2 stimulated pSTAT5, Tall-1 T cells

Chain of Tyk2 (P29597 whole entry): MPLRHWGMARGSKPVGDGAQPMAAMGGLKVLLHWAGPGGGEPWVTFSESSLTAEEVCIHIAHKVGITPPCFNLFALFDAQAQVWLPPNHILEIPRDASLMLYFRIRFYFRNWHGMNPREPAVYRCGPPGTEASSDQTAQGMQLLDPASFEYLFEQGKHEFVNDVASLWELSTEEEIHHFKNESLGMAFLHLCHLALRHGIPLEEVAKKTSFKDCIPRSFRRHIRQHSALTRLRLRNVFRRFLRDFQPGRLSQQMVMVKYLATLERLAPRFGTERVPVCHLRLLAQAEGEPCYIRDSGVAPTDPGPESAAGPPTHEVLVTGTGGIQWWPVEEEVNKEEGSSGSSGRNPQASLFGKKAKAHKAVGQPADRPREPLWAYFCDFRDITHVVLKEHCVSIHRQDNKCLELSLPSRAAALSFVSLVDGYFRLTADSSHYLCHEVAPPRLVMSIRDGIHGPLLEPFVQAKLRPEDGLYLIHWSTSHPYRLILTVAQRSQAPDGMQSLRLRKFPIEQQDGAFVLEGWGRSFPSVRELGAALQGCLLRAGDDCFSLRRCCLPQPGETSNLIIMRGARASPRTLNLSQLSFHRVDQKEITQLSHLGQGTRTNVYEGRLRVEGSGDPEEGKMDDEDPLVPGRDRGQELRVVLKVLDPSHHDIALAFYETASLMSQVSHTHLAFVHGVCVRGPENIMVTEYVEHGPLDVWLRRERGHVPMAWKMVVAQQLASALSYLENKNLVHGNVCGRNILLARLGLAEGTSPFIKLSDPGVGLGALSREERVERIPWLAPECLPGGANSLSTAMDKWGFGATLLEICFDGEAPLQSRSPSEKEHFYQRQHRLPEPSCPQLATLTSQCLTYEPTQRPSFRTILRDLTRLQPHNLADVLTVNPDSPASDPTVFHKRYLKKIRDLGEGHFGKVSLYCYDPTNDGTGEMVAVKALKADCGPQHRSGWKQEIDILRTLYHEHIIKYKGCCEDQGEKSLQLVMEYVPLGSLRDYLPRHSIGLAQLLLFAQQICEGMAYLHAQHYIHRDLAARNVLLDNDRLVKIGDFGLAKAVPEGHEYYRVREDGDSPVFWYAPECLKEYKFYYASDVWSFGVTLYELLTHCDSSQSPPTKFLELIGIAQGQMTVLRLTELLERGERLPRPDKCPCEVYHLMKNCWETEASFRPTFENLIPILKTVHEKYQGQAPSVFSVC
Chain of JAK2 (O60674 whole entry): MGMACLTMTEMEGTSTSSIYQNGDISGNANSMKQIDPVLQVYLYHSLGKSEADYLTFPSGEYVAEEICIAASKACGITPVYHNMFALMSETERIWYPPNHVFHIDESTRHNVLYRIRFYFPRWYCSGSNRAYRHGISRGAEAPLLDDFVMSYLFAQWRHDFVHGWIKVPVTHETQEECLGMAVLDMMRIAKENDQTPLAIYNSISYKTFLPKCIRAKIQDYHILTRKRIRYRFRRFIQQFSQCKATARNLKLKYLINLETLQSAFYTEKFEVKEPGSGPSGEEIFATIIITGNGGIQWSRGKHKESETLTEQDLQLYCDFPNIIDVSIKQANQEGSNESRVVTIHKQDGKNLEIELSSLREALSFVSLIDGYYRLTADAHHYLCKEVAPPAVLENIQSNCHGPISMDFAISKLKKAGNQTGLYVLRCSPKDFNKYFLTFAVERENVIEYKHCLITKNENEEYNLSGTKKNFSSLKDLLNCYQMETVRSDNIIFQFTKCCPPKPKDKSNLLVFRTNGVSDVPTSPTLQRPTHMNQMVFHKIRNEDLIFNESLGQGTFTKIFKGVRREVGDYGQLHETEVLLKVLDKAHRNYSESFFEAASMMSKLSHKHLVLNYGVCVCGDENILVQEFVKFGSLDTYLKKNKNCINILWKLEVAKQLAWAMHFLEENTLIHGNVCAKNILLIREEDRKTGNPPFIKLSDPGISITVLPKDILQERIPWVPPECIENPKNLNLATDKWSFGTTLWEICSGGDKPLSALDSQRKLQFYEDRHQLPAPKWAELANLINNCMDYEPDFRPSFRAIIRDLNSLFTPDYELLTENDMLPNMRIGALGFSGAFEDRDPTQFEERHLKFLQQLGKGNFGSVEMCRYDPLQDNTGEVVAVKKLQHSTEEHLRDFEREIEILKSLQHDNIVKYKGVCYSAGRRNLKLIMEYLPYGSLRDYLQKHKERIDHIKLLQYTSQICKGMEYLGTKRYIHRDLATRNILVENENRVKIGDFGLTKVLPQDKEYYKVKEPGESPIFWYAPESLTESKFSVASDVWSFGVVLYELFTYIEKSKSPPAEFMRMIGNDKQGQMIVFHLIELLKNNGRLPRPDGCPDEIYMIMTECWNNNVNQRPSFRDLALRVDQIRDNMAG
Chain of JAK1 (P23458 whole entry): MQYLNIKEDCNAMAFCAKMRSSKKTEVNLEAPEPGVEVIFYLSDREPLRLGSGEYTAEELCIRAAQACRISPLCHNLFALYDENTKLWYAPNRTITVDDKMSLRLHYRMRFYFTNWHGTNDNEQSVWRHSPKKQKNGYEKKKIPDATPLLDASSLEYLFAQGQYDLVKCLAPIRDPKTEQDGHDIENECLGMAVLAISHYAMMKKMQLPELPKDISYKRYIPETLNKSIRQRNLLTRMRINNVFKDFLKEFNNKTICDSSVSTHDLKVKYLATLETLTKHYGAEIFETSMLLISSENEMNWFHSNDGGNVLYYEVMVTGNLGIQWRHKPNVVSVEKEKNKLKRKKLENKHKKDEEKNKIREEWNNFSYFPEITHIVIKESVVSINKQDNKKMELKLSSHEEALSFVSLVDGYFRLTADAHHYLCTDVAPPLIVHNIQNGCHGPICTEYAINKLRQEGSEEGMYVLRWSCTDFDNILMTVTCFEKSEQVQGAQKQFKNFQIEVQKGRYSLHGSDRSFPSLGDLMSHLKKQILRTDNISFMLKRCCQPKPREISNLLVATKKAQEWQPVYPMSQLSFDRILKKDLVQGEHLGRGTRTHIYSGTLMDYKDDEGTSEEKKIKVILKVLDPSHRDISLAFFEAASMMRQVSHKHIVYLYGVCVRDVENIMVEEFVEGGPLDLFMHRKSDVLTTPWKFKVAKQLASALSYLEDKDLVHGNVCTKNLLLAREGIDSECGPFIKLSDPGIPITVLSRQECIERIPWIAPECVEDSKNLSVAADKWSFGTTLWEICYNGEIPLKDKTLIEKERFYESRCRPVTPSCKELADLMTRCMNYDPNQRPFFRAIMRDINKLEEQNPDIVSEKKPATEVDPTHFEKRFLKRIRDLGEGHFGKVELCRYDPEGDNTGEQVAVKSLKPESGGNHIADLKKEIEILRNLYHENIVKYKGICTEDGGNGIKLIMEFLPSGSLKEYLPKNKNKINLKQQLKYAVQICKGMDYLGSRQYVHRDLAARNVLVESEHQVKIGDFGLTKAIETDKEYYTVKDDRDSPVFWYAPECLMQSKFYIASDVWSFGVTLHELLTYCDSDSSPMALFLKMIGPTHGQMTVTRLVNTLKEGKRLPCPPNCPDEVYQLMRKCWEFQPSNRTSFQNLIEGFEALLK
Chain of JAK3 (P52333 whole entry): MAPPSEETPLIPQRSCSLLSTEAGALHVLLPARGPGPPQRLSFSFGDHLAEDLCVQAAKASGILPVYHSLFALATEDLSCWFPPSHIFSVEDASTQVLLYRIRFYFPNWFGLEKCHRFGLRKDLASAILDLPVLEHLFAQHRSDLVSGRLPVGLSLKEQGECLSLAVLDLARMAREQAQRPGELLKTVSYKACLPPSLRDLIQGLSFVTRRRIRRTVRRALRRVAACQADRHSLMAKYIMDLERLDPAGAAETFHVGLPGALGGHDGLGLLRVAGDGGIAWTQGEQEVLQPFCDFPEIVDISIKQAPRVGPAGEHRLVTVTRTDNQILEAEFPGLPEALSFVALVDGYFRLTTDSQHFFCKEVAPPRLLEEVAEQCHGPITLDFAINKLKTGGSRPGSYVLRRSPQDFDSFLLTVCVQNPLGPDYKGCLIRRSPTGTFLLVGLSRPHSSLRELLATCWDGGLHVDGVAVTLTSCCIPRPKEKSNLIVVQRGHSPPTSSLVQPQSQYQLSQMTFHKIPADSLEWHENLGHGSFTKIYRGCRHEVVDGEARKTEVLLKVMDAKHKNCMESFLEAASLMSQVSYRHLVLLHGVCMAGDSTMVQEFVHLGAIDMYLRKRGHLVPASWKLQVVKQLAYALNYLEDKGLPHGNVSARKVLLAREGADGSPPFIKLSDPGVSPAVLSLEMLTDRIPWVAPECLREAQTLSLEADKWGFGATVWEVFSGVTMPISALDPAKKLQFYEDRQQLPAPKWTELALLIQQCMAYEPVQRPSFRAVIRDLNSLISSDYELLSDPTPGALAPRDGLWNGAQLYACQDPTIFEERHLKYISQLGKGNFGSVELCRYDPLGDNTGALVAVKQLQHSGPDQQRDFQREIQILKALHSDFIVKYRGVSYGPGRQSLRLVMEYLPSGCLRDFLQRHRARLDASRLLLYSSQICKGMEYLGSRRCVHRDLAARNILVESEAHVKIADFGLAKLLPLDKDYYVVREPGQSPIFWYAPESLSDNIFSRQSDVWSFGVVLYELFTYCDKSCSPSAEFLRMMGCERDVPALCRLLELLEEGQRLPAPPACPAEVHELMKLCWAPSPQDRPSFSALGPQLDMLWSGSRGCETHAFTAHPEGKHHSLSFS

SMILES	JAK 3 (pKi) [1]	JAK3 (pKi)-JAK1 (pKi) [1, 7]	Caco Kp [2]	JAK 1 (pKi) [3]	Tall-1 (pIC50) [4, 8]	JAK 2 (pKi) [5]	Tyk 2 (pKi) [6]	JAK3 (pKi)-JAK1 (pKi) ([1]; selectivity, difference of pKi values)	Tall-1 (pIC50) ([4]; IL-2 stimulated pSTAT5 in Tall-1 T cells)
C=CC(=O)N1CCN(CCn2c(=O)ccc3cnc(Nc4cnn(C)c4)nc32)CC1 [Example 16]	B (B represents pKi value between 9 and 10 (Ki between 1 nM and 0.1 nM))	A (A represents a value of 3 or above)	A (A represents a value below 5×10^−6 cm/sec)	E (E represents a pKi value of 7 or below (Ki of 100 nM or above))	C (C represents a pIC50 value between 6 and 6.7 (IC50 between 1 μM and 200 nM))	E (E represents a pKi value of 7 or below (Ki of 100 nM or above))	E (E represents a pKi value of 7 or below (Ki of 100 nM or above))		
C=CC(=O)N1CCN(CCn2c(=O)ccc3cnc(Nc4ccc(N5CCN(C(=O)COC)CC5)cc4)nc32)[C@@H](CC)C1 [Example 186]	B (B represents pKi value between 9 and 10 (Ki between 1 nM and 0.1 nM))	A (A represents a value of 3 or above)	A (A represents a value below 5×10^−6 cm/sec)	E (E represents a pKi value of 7 or below (Ki of 100 nM or above))	B (B represents a pC50 value between 6.7 (included) and 7.5 (IC50 between 200 nM and 32 nM))	E (E represents a pKi value of 7 or below (Ki of 100 nM or above))	E (E represents a pKi value of 7 or below (Ki of 100 nM or above))		
C=CC(=O)N1CC(CCn2c(=O)ccc3cnc(Nc4cnn(C5CCOCC5)c4)nc32)C1 [Example 81]	B (B represents pKi value between 9 and 10 (Ki between 1 nM and 0.1 nM))	A (A represents a value of 3 or above)	A (A represents a value below 5×10^−6 cm/sec)	E (E represents a pKi value of 7 or below (Ki of 100 nM or above))	B (B represents a pC50 value between 6.7 (included) and 7.5 (IC50 between 200 nM and 32 nM))				
C=CC(=O)N1CC(CCn2c(=O)ccc3cnc(Nc4ccc(C5CCN(C)CC5)cc4)nc32)C1 [Example 77]	B (B represents pKi value between 9 and 10 (Ki between 1 nM and 0.1 nM))	A (A represents a value of 3 or above)	A (A represents a value below 5×10^−6 cm/sec)	E (E represents a pKi value of 7 or below (Ki of 100 nM or above))	B (B represents a pC50 value between 6.7 (included) and 7.5 (IC50 between 200 nM and 32 nM))				
C=CC(=O)N1CCN(CCn2c(=O)ccc3cnc(Nc4ccc(N5CCN(CCOC)CC5)cc4)nc32)CC1 [Example 208]	B (B represents pKi value between 9 and 10 (Ki between 1 nM and 0.1 nM))	A (A represents a value of 3 or above)	B (B represents a value between 5×10^−6 and 10×10^−6 cm/sec)	E (E represents a pKi value of 7 or below (Ki of 100 nM or above))	B (B represents a pC50 value between 6.7 (included) and 7.5 (IC50 between 200 nM and 32 nM))	E (E represents a pKi value of 7 or below (Ki of 100 nM or above))	E (E represents a pKi value of 7 or below (Ki of 100 nM or above))		
C=CC(=O)N1CC(CCn2c(=O)ccc3cnc(Nc4ccc(N5CCOCC5=O)cc4)nc32)C1 [Example 47]	B (B represents pKi value between 9 and 10 (Ki between 1 nM and 0.1 nM))	A (A represents a value of 3 or above)	A (A represents a value below 5×10^−6 cm/sec)	E (E represents a pKi value of 7 or below (Ki of 100 nM or above))	C (C represents a pIC50 value between 6 and 6.7 (IC50 between 1 μM and 200 nM))				
C=CC(=O)N1CC(CCn2c(=O)ccc3cnc(Nc4ccc(N5CCSCC5)nc4)nc32)C1 [Example 54]	B (B represents pKi value between 9 and 10 (Ki between 1 nM and 0.1 nM))	A (A represents a value of 3 or above)	C (C represents a value between 10×10^−6 and 30×10^−6 cm/sec)	E (E represents a pKi value of 7 or below (Ki of 100 nM or above))	C (C represents a pIC50 value between 6 and 6.7 (IC50 between 1 μM and 200 nM))				
C=CC(=O)N1CC(CCn2c(=O)ccc3cnc(Nc4cnn(CC(F)F)c4)nc32)C1 [Example 20]	B (B represents pKi value between 9 and 10 (Ki between 1 nM and 0.1 nM))	A (A represents a value of 3 or above)	B (B represents a value between 5×10^−6 and 10×10^−6 cm/sec)	E (E represents a pKi value of 7 or below (Ki of 100 nM or above))	C (C represents a pIC50 value between 6 and 6.7 (IC50 between 1 μM and 200 nM))				
C=CC(=O)N1CC(CCn2c(=O)ccc3cnc(Nc4cccc(N5CCOCC5)c4)nc32)C1 [Example 28]	B (B represents pKi value between 9 and 10 (Ki between 1 nM and 0.1 nM))	A (A represents a value of 3 or above)	C (C represents a value between 10×10^−6 and 30×10^−6 cm/sec)	E (E represents a pKi value of 7 or below (Ki of 100 nM or above))	C (C represents a pIC50 value between 6 and 6.7 (IC50 between 1 μM and 200 nM))				
C=CC(=O)N1CC(CCn2c(=O)ccc3cnc(Nc4cnn(C(F)F)c4)nc32)C1 [Example 36]	B (B represents pKi value between 9 and 10 (Ki between 1 nM and 0.1 nM))	A (A represents a value of 3 or above)	C (C represents a value between 10×10^−6 and 30×10^−6 cm/sec)	E (E represents a pKi value of 7 or below (Ki of 100 nM or above))	C (C represents a pIC50 value between 6 and 6.7 (IC50 between 1 μM and 200 nM))				
C=CC(=O)N1CC(CCn2c(=O)ccc3cnc(Nc4cnn(CCO)c4)nc32)C1 [Example 35]	B (B represents pKi value between 9 and 10 (Ki between 1 nM and 0.1 nM))	A (A represents a value of 3 or above)	A (A represents a value below 5×10^−6 cm/sec)	E (E represents a pKi value of 7 or below (Ki of 100 nM or above))	C (C represents a pIC50 value between 6 and 6.7 (IC50 between 1 μM and 200 nM))				
C=CC(=O)N1CCN(CCn2c(=O)ccc3cnc(Nc4ccc(N5CCN(C)CC5)c(Cl)c4)nc32)CC1 [Example 154]	B (B represents pKi value between 9 and 10 (Ki between 1 nM and 0.1 nM))	A (A represents a value of 3 or above)		E (E represents a pKi value of 7 or below (Ki of 100 nM or above))	B (B represents a pC50 value between 6.7 (included) and 7.5 (IC50 between 200 nM and 32 nM))	E (E represents a pKi value of 7 or below (Ki of 100 nM or above))	E (E represents a pKi value of 7 or below (Ki of 100 nM or above))		
C=CC(=O)N1CC(CCn2c(=O)ccc3cnc(Nc4cccc(N5CCCCC5)c4)nc32)C1 [Example 68]	B (B represents pKi value between 9 and 10 (Ki between 1 nM and 0.1 nM))	A (A represents a value of 3 or above)		E (E represents a pKi value of 7 or below (Ki of 100 nM or above))	C (C represents a pIC50 value between 6 and 6.7 (IC50 between 1 μM and 200 nM))	E (E represents a pKi value of 7 or below (Ki of 100 nM or above))	E (E represents a pKi value of 7 or below (Ki of 100 nM or above))		
C=CC(=O)N1CC(C(C)(C)Cn2c(=O)ccc3cnc(Nc4ccc(N5CCN(C)CC5)cc4)nc32)C1 [Example 246]	B (B represents pKi value between 9 and 10 (Ki between 1 nM and 0.1 nM))			E (E represents a pKi value of 7 or below (Ki of 100 nM or above))		E (E represents a pKi value of 7 or below (Ki of 100 nM or above))	E (E represents a pKi value of 7 or below (Ki of 100 nM or above))	A (A represents a value of 3 or above)	B (B represents a pC50 value between 6.7 (included) and 7.5 (IC50 between 200 nM and 32 nM))
